Experimental data published in article PMC8409943, “Study on mechanism of low bioavailability of black tea theaflavins by using Caco-2 cell monolayer” (Drug Delivery, 2021).
Where two headings read alike, the source gives them in different places.

Columns and labels:
BCRP = test: Western blot, protein level of BCRP; type: cell-based, Human; conditions: Caco-2 cells, 200 μM, 2 h, normalized to β-actin, vs control
Procedure: (§1) Cell lysates were prepared with RIPA lysis buffer. […] Cell protein (50 μg) was loaded onto SDS polyacrylamide gel (5% stacking gel; 8% separating gel) and separated by electrophoresis for 1.5 h at 20 mA. Next, the separated proteins were transferred onto the PVDF membrane in ice bath for 1.5 h at 120 mA, followed by blocking the membrane with 5% nonfat milk in Tris-buffered saline containing 0.1% Tween-20 (TBST) for 1 h at room temperature. After blocking, the blots were incubated overnight at 4 °C with the primary antibody of P-gp, MRP1, MRP2, MRP3, BCRP (1:200) or β-actin (1:40,000), followed by washing with TBST and incubation for 1 h at room temperature with HRP-conjugated goat anti-rabbit (1:3,000). Immunoreactive proteins were visualized by the ECL detection system, band intensity was quantified by Image Lab (Bio-Rad, CA, USA), and the protein contents were normalized to β-actin.

Caco-2 monolayers = test: HPLC-MS/MS identification of metabolites in the absorptive transport of Caco-2 monolayers; type: in vitro ADME, Human; conditions: 200 µM, 2 h; for conjugated metabolites (glucuronidated, sulfated and methylated): AP side or BL side of Caco-2 monolayers; for metabolites identified: absorptive transport, AP side and BL side
Procedure: TF3G, TF3’G and TFDG were dissolved in DMSO (≤0.5%), and then, diluted with HBSS. Caco-2 cells were incubated with 200 µM TF3G, TF3’G and TFDG at 37 °C for 2 h. Samples collected from both AP side and BL side were measured by HPLC with MS detection, and the metabolites were determined in terms of the standard TF, TF3G, TF3’G, TFDG, and gallic acid (Table S2).

[1] = Transepithelial transport of theaflavins across Caco-2 cell monolayers, with or without efflux transporter inhibitors; type: in vitro ADME, Human; conditions: human; for recovery at 2 h, 200 μM: Caco-2, Caco-2 monolayers, after 2 h incubation; for efflux ratio at 2 h, 200 μM / Papp A→B at 2 h, 200 μM / Papp B→A at 2 h, 200 μM: 2 h incubation
Procedure: (§2) For transport studies, Caco-2 cells were seeded at a density of 3 × 10^5 cells per well in Transwell® inserts (polycarbonate membrane, 24 mm i.d., 0.4 μm pore size, Corning Costar Corp., NY, USA) in 6-well plates (Zhang et al., [2004]). […] The inserts were washed twice with HBSS buffer and equilibrated at 37 °C for 30 min. Standard stock solutions of each theaflavin were diluted to 200 μM with HBSS. For absorptive transport, theaflavins in 1.5 mL HBSS was added into the AP side and 2.6 mL HBSS was added into the BL side of all inserts. For secretory transport, 1.5 mL HBSS and 2.6 mL theaflavins in HBSS were added into AP side and BL side, respectively. Samples were collected from the receiving chamber after 0.5, 1, 2, 3, or 4 h incubation and then were lyophilized at −110 °C in a CoolSafe freeze dryer (LaboGene ApS, Bjarkesvej, Denmark) for HPLC analysis. The recovery rate of theaflavins in the transport was calculated from the above Equation (2).
(§3) Prior to transport inhibition experiment, cells were preincubated for 30 min with 100 μM Vep, 100 μM CsA, 100 μM MK-571, or 10 μM FTC in both sides (Vaidyanathan & Walle, [2001]; Wang et al., [2008]). Then, the absorptive and secretory experiments were performed in the presence of inhibitors as described above. Samples were collected from the receiving chamber after 2 h incubation and then were lyophilized at −110 °C for HPLC analysis.
(§4) The apparent permeability coefficient (Papp, cm/s) was calculated as follows: (3) Papp= dQ/dt×V/(A×C0) where dQ/dt is the variation in concentration on the receiving side over time (μM/s); V, the volume of the solution collected from the receiving chamber (cm^3); A, the area of the membrane (4.67 cm^2); C0, the initial concentration of theaflavins in the donor chamber (μM).
(§5) The efflux ratio was calculated as follows: (4) Efflux ratio= Papp(BL−AP)/Papp(AP−BL) where Papp, apparent permeability coefficient; AP-BL, apical to basolateral transport; BL-AP, basolateral to apical transport.

Caco-2 cell monolayers = test: as above; type: in vitro ADME, Human; conditions: for fold increase in the influx: absorptive transport, with verapamil vs control, 2 h
Procedure: as §2, §3, §4, §5

MRP1 = test: Western blot, protein level of MRP1; type: cell-based, Human; conditions: Caco-2 cells, 200 μM, 2 h, normalized to β-actin, vs control
Procedure: as §1

Caco-2 cells = test: Cytotoxicity study by CCK-8 method; type: cell-based, Human; conditions: 24 h
Procedure: Standard stock solutions (1000 μM) of each theaflavin were prepared in 0.1% dimethyl sulfoxide (DMSO) in deionized water, and diluted with fresh DMEM to 100, 200, 300, 400, and 500 µmol/L respectively. Each inhibitor was prepared as instructions. The cytotoxicity of theaflavins and four inhibitors of multidrug resistant associated proteins to Caco-2 cells was examined by CCK-8 method (Song et al., [2014]). Briefly, Caco-2 cells were inoculated onto 96-well microtiter plates at a density of 1 × 10^4 cells per well. After incubation at 37 °C for 24 h, cells were incubated for another 24 h with different concentrations of theaflavins, followed by adding 10 μL CCK-8 solution and 1 h incubation at 37 °C. The absorbance (OD) value was determined at 450 nm using a microplate reader (ELX-800, Bio-Tek Instruments Inc., Winooski, USA). Four inhibitors were used in this study: Vep, inhibitor of P-gp; CsA, inhibitor and substrate of P-gp; MK-571, inhibitor of MRP1, MRP2 and MRP3; FTC, inhibitor of BCRP (Silbermann et al., [1989]; König et al., [1999]; Renes et al., [1999]; Ali et al., [2017]). The cytotoxicity of Vep, CsA, MK-571 or FTC was also determined by CCK-8 assay. […] To determine the effects of inhibitors on the cytotoxicity of theaflavins, cells were incubated with both different theaflavin monomers (100, 200, 300, 400, and 500 μM) and different inhibitors. IC50, the half inhibitory concentration, was calculated from the cell viability. The cell viability was calculated by the following equation: (1) Cell viability (%)=(ODsample− ODblank)/(ODcontrol− ODblank)×100% where ODsample is the absorbance value of cell + sample + complete medium; ODblank, the absorbance value of complete medium; ODcontrol, the absorbance value of cell + complete medium.

[2] = Stability (recovery rate) of theaflavins in HBSS and DMEM in the absence of cells; conditions: 2 h
Procedure: Standard stock solutions of each theaflavin were diluted with HBSS and DMEM respectively, obtaining final test solutions of 200 μM. The recovery rate of theaflavins in HBSS and in DMEM, in the absence of cells, was analyzed by HPLC after incubation at 37 °C for 0.5, 1, 2, 3, 4, 8, 12, and 24 hours, respectively. The recovery rate was used to measure the stability and calculated as follows: (2) Recovery rate=Ct/C0× 100% where Ct is the final concentration at different incubation time (μM); C0, the initial concentration (μM).
Theaflavins were characterized by high performance liquid chromatography (HPLC, Agilent 1100VL, Agilent Technologies Inc., CA, USA). Briefly, samples were extracted with 70% methanol, centrifuged at 685 × g for 10 min, and filtered through a 0.45 μm membrane (Nylon 66). The separation was performed by an ODS reversed-phase column (4.6 mm i.d.×250 mm, SB-C18, Agilent Technologies Inc., CA, USA) at a flow rate of 0.7 mL/min. Chromatographic conditions were slightly modified according to China National Standard (GB/T 30483-2013, GAQSIQ, P. R. China, 2013). Samples were eluted with a gradient of solvent A (100 mL water with 9 mL acetonitrile and 2 mL acetic acid) and B (100 mL acetonitrile with 17.8 mL water and 2 mL acetic acid) as follows: 0–5 min, 95% A; 5–10 min, 90% A; 10–20 min, 70% A; 20–25 min, 65% A; 25–30 min, 70% A; 30–35 min, 100% A. Theaflavins were detected using an ultraviolet detector at a wavelength of 278 nm.

[3] = apical to basolateral, read-out: recovery of theaflavins in absorptive transport
[4] = basolateral to apical, read-out: recovery of theaflavins in secretory transport
[5] = Caco-2, Papp(BL−AP)/Papp(AP−BL), Ctrl (no inhibitor)
[6] = Caco-2, absorptive transport, 200 μM theaflavin in HBSS, Ctrl (no inhibitor)
[7] = Caco-2, secretory transport, 200 μM theaflavin in HBSS, Ctrl (no inhibitor)
[8] = Caco-2, with 10 μM FTC (BCRP inhibitor), + 10 μM FTC (BCRP inhibitor)
[9] = Caco-2, with 10 μM FTC (BCRP inhibitor), absorptive transport, + 10 μM FTC (BCRP inhibitor)
[10] = Caco-2, with 10 μM FTC (BCRP inhibitor), secretory transport, + 10 μM FTC (BCRP inhibitor)
[11] = Caco-2, with 100 μM CsA (P-gp inhibitor and substrate), + 100 μM CsA (P-gp inhibitor and substrate)
[12] = Caco-2, with 100 μM CsA (P-gp inhibitor and substrate), absorptive transport, + 100 μM CsA (P-gp inhibitor and substrate)
[13] = Caco-2, with 100 μM CsA (P-gp inhibitor and substrate), secretory transport, + 100 μM CsA (P-gp inhibitor and substrate)
[14] = Caco-2, with 100 μM Vep (P-gp inhibitor), + 100 μM Vep (P-gp inhibitor)
[15] = Caco-2, with 100 μM Vep (P-gp inhibitor), absorptive transport, + 100 μM Vep (P-gp inhibitor)
[16] = Caco-2, with 100 μM Vep (P-gp inhibitor), secretory transport, + 100 μM Vep (P-gp inhibitor)
[17] = Homo sapiens, Ctrl (no inhibitor)

SMILES | increase of protein level of BCRP (BCRP) | conjugated metabolites (glucuronidated, sulfated and methylated) (Caco-2 monolayers) | metabolites identified (Caco-2 monolayers) | recovery at 2 h, 200 μM [1, 3] [%] | recovery at 2 h, 200 μM [1, 4] [%] | efflux ratio at 2 h, 200 μM [1, 5] | Papp A→B at 2 h, 200 μM [1, 6] [nm/s] | Papp B→A at 2 h, 200 μM [1, 7] [nm/s] | efflux ratio at 2 h, 200 μM [1, 8] | Papp A→B at 2 h, 200 μM [1, 9] [nm/s] | Papp B→A at 2 h, 200 μM [1, 10] [nm/s] | efflux ratio at 2 h, 200 μM [1, 11] | Papp A→B at 2 h, 200 μM [1, 12] [nm/s] | Papp B→A at 2 h, 200 μM [1, 13] [nm/s] | efflux ratio at 2 h, 200 μM [1, 14] | Papp A→B at 2 h, 200 μM [1, 15] [nm/s] | Papp B→A at 2 h, 200 μM [1, 16] [nm/s] | increase of protein level of MRP1 (MRP1) | IC50 (Caco-2 cells; + CsA) [µM] | IC50 (Caco-2 cells; + FTC) [µM] | further results
O=C(O[C@@H]1Cc2c(O)cc(O)cc2O[C@@H]1c1cc(O)c(O)c2c(=O)c(O)cc([C@H]3Oc4cc(O)cc(O)c4C[C@H]3O)cc12)c1cc(O)c(O)c(O)c1 [TF3’G, theaflavin-3’-gallate] | increased | not detected | GA (peak M3, Figure 5(G,H)) and TF | 31.8 | 31.6 | 1.62 ± 0.15 | 0.44 ± 0.03 | 0.72 ± 0.03 | 1.26 ± 0.11 | 0.54 ± 0.03 | 0.67 ± 0.02 | 1.55 ± 0.14 | 0.54 ± 0.03 | 0.84 ± 0.03 | 1.08 ± 0.1 | 0.55 ± 0.03 | 0.59 ± 0.02 | increased | 575 ± 84.3 | 432 ± 30.7 | fold increase in the influx (Caco-2 cell monolayers): 1.24 fold; IC50 (Caco-2 cells; + MK-571): 424 ± 35 µM; IC50 (Caco-2 cells; + VEP): 467 ± 53.3 µM; IC50 (Caco-2 cells; [17]): 521 ± 31.9 µM; degraded due to the structural instability [2]: 22.1%
O=C(O[C@@H]1Cc2c(O)cc(O)cc2O[C@@H]1c1cc(O)c(=O)c2c(O)c(O)cc([C@H]3Oc4cc(O)cc(O)c4C[C@H]3O)c2c1)c1cc(O)c(O)c(O)c1 [TF3G, theaflavin-3-gallate] | 115.78% | not detected | GA and TF | 44.2 | 47.6 | 1.58 ± 0.3 | 1.07 ± 0.04 | 1.68 ± 0.3 | 1.41 ± 0.27 | 1.09 ± 0.04 | 1.53 ± 0.27 | 1.13 ± 0.22 | 1.3 ± 0.05 | 1.46 ± 0.26 | 0.86 ± 0.16 | 2.03 ± 0.08 | 1.73 ± 0.31 | 58.36% | 446 ± 30.1 | 508 ± 15.9 | fold increase in the influx (Caco-2 cell monolayers): 1.90 fold; transport amount, absorptive transport (peak) (Caco-2 cell monolayers; apical to basolateral, 200 μM, at 3 h): 1.30 ± 0.08 nmol; transport amount, secretory transport (peak) (Caco-2 cell monolayers; basolateral to apical, 200 μM, at 3 h): 3.59 ± 0.36 nmol; IC50 (Caco-2 cells; + MK-571): 585 ± 78.7 µM; IC50 (Caco-2 cells; + VEP): 454 ± 13.2 µM; IC50 (Caco-2 cells; [17]): 641 ± 7.8 µM; degraded due to the structural instability [2]: 24.6%
O=C(O[C@@H]1Cc2c(O)cc(O)cc2O[C@@H]1c1cc(O)c(=O)c2c(O)c(O)cc([C@H]3Oc4cc(O)cc(O)c4C[C@H]3OC(=O)c3cc(O)c(O)c(O)c3)c2c1)c1cc(O)c(O)c(O)c1 [TFDG, theaflavin-3, 3’-digallate] | increased | not detected | GA, TF, TF3G, and TF3’G | 32.7 | 24.7 | 1.57 ± 0.08 | 3.64 ± 0.34 | 5.69 ± 0.49 | 1.47 ± 0.08 | 3.75 ± 0.35 | 5.52 ± 0.48 | 1.58 ± 0.09 | 4 ± 0.37 | 6.32 ± 0.55 | 1.53 ± 0.08 | 3.57 ± 0.33 | 5.46 ± 0.47 | increased | 702 ± 69.4 | 580 ± 83.9 | efflux ratio at 2 h, 200 μM ([1]; Caco-2, with 100 μM MK-571 (MRP1, MRP2, MRP3 inhibitor), + 100 μM MK-571 (MRP1, MRP2, MRP3 inhibitor)): 1.35 ± 0.07; Papp A→B at 2 h, 200 μM ([1]; Caco-2, with 100 μM MK-571 (MRP1, MRP2, MRP3 inhibitor), absorptive transport, + 100 μM MK-571 (MRP1, MRP2, MRP3 inhibitor)): 3.89 ± 0.36 nm/s; Papp B→A at 2 h, 200 μM ([1]; Caco-2, with 100 μM MK-571 (MRP1, MRP2, MRP3 inhibitor), secretory transport, + 100 μM MK-571 (MRP1, MRP2, MRP3 inhibitor)): 5.24 ± 0.46 nm/s; transport amount, absorption peak (Caco-2 cell monolayers; apical to basolateral, 200 μM, at 2 h): 2.44 ± 0.23 nmol; transport amount, secretion peak (Caco-2 cell monolayers; basolateral to apical, 200 μM, at 2 h): 3.83 ± 0.33 nmol; IC50 (Caco-2 cells; + MK-571): 373 ± 38.8 µM; IC50 (Caco-2 cells; + VEP): 509 ± 40.6 µM; IC50 (Caco-2 cells; [17]): 580 ± 34.7 µM
